≈ marks a conversion by molar mass, not a printed value. Calls of active or inactive are those of the source. The calls are words filed in the database; no cut-off is given here.
Tests used:
Helicobacter pylori [1] = assay: In vivo protection against Helicobacter pylori ATCC 43504 infected in BALB/c mouse gastric mucosa model assessed as appearance of intact sub-mucosa at high dose administered once a day for 2 weeks by HE staining based analysis; type: functional, organism-based
Helicobacter pylori [2] = assay: (§1) Protection against Helicobacter pylori ATCC 43504 infected (MOI 50:1) in human GES1 cell injury model assessed as necrotic cells at 25 uM pre-treated for 2 hrs followed by bacterial infection measured after 6 hrs by Annexin/V-FITC staining based flow cytometry analysis (reference value: 2.85%); type: functional; conditions: time 8 hrs
Helicobacter pylori [3] = assay: Protection against Helicobacter pylori ATCC 43504 infected (MOI 100:1) in human GES1 cell injury model assessed as viable cells followed by bacterial infection at 25 uM pre-treated for 2 hrs measured after 6 hrs by Annexin/V-FITC staining based flow cytometry analysis (reference value: 68.36%); type: functional; conditions: time 8 hrs
Helicobacter pylori [4] = assay: as §1, with “200:1)” for “50:1)”, “early apoptotic” for “necrotic”, “31.93 %)” for “2.85%)”; type: functional; conditions: time 8 hrs
[5] = Acute toxicity in BALB/c mouse assessed as change in stool consistency at 1 g/Kg, po single dose administered for 7 days; type: organism-based; conditions: in vivo, 1000 mg/kg, 168 h, time 7 day
Helicobacter pylori [6] = assay: Protection against Helicobacter pylori ATCC 43504 infected (MOI 25:1) in human GES1 cell injury model assessed as late apoptotic cells at 50 uM pre-treated for 2 hrs measured after 6 hrs by Annexin/V-FITC staining based flow cytometry analysis (reference value: 0.31%); type: functional; conditions: time 8 hrs
Helicobacter pylori [7] = assay: (§2) Protection against Helicobacter pylori ATCC 43504 infected (MOI 50:1) in human GES1 cell injury model assessed as necrotic cells at 50 uM pre-treated for 2 hrs followed by bacterial infection measured after 6 hrs by Annexin/V-FITC staining based flow cytometry analysis (reference value: 2.85%); type: functional; conditions: time 8 hrs
Helicobacter pylori [8] = assay: (§3) Protection against Helicobacter pylori ATCC 43504 infected (MOI 200:1) in human GES1 cell injury model assessed as viable cells at 25 uM pre-treated for 2 hrs followed by bacterial infection measured after 6 hrs by Annexin/V-FITC staining based flow cytometry analysis (reference value: 57.87%); type: functional; conditions: time 8 hrs
Helicobacter pylori [9] = assay: Antibacterial activity against Helicobacter pylori ATCC 43504 incubated for 24 hrs by broth dilution method; type: functional; conditions: dose 1-64 […]
[10] = Acute toxicity in BALB/c mouse assessed as pathological abnormality in liver at 1 g/Kg, po single dose administered for 7 days by HE staining based analysis; type: organism-based; conditions: in vivo, 1000 mg/kg, 168 h, time 7 day
GES1 [11] = assay: Induction of DNA damage in human GES1 cells infected (25 to 400:1 MOI) with Helicobacter pylori ATCC 43504 assessed as decrease in gammaH2AX levels by measuring fluorescence intensity at 25 to 50 uM by SP8 laser confocal microscopic analysis; type: functional, cell-based; conditions: dose 25-50 µM
Helicobacter pylori [12] = assay: Protection against Helicobacter pylori ATCC 43504 infected (MOI 300:1) in human GES1 cell injury model assessed as necrotic cells at 25 uM pre-treated for 2 hrs followed by bacterial infection measured after 6 hrs by Annexin/V-FITC staining based flow cytometry analysis (reference value: 6.05%); type: functional; conditions: time 8 hrs
Helicobacter pylori [13] = assay: In vivo protection against Helicobacter pylori ATCC 43504 infected in BALB/c mouse gastric mucosa model assessed as appearance of intact tissue structure at low dose administered once a day for 2 weeks by HE staining based analysis; type: functional, organism-based
Helicobacter pylori [14] = assay: In vivo protection against Helicobacter pylori ATCC 43504 infected in BALB/c mouse gastric mucosa model assessed as effect on infiltration at high dose administered once a day for 2 weeks by HE staining based analysis; type: functional, organism-based
GES1 [15] = assay: Induction of DNA damage in human GES1 cells infected (25 to 400:1 MOI) with Helicobacter pylori ATCC 43504 assessed as decrease in gammaH2AX levels at 50 uM by SP8 laser confocal microscopic analysis; type: functional, cell-based; conditions: time 20.0 min
Helicobacter pylori [16] = assay: Protection against Helicobacter pylori ATCC 43504 infected (MOI 200:1) in human GES1 cell injury model assessed as necrotic cells at 50 uM pre-treated for 2 hrs followed by bacterial infection measured after 6 hrs by Annexin/V-FITC staining based flow cytometry analysis (reference value: 3.92%); type: functional; conditions: time 8 hrs
Helicobacter pylori [17] = assay: Protection against Helicobacter pylori ATCC 43504 infected (MOI 200:1) in human GES1 cell injury model assessed as viable cells at 50 uM pre-treated for 2 hrs followed by bacterial infection measured after 6 hrs by Annexin/V-FITC staining based flow cytometry analysis (reference value: 57.87%); type: functional; conditions: time 8 hrs
Helicobacter pylori [18] = assay: In vivo protection against Helicobacter pylori ATCC 43504 infected in BALB/c mouse gastric mucosa model assessed as effect on hyperplasia at low dose administered once a day for 2 weeks by HE staining based analysis; type: functional, organism-based
Helicobacter pylori [19] = assay: Protection against Helicobacter pylori ATCC 43504 infected (MOI 25:1) in human GES1 cell injury model assessed as necrotic cells at 50 uM pre-treated for 2 hrs measured after 6 hrs by Annexin/V-FITC staining based flow cytometry analysis (reference value: 0.66%); type: functional; conditions: time 8 hrs
Helicobacter pylori [20] = assay: as §2, with “400:1)” for “50:1)”, “early apoptotic” for “necrotic”, “42.41 %)” for “2.85%)”; type: functional; conditions: time 8 hrs
[21] = Acute toxicity in BALB/c mouse assessed as pathological abnormality in lungs at 1 g/Kg, po single dose administered for 7 days by HE staining based analysis; type: organism-based; conditions: in vivo, 1000 mg/kg, 168 h, time 7 day
Helicobacter pylori [22] = assay: Protection against Helicobacter pylori ATCC 43504 infected (MOI 100:1) in human GES1 cell injury model assessed as viable cells at 50 uM pre-treated for 2 hrs followed by bacterial infection measured after 6 hrs by Annexin/V-FITC staining based flow cytometry analysis (reference value: 68.36%); type: functional; conditions: time 8 hrs
Helicobacter pylori [23] = assay: as §2, with “300:1)” for “50:1)”, “late apoptotic” for “necrotic”, “11.95%)” for “2.85%)”; type: functional; conditions: time 8 hrs
Helicobacter pylori [24] = assay: (§4) Protection against Helicobacter pylori ATCC 43504 infected (MOI 100:1) in human GES1 cell injury model assessed as early apoptotic cells at 25 uM pre-treated for 2 hrs followed by bacterial infection measured after 6 hrs by Annexin/V-FITC staining based flow cytometry analysis (reference value: 24.66 %); type: functional; conditions: time 8 hrs
Helicobacter pylori [25] = assay: as §3, with “late apoptotic” for “viable”, “6.28%)” for “57.87%)”; type: functional; conditions: time 8 hrs
Helicobacter pylori [26] = assay: as §4, with “200:1)” for “100:1)”, “50” for “25”, “31.93” for “24.66”; type: functional; conditions: time 8 hrs
Helicobacter pylori [27] = assay: as §4, with “50:1)” for “100:1)”, “50” for “25”, “13.16” for “24.66”; type: functional; conditions: time 8 hrs
[28] = Acute toxicity in BALB/c mouse assessed as change in body weight at 1 g/Kg, po single dose administered for 7 days; type: organism-based; conditions: in vivo, 1000 mg/kg, 168 h, time 7 day
Helicobacter pylori [29] = assay: Antibacterial activity against Helicobacter pylori ATCC 43504 assessed as inhibition of bacterial colonies at 8 ug/mL incubated for 24 hrs by crystal violet based staining based analysis relative to control; type: functional; set-up: scale not given: the % may be the effect or the level left; conditions: dose 8 µg/ml

## O=C(Oc1n[se]c2ccccc12)c1cccc(F)c1
Helicobacter pylori [1]
  Activity: Active
Helicobacter pylori [2]
  Activity: 0.14%
Helicobacter pylori [3]
  Activity: 91.76%
Helicobacter pylori [4]
  Activity: 12.06%
[5]
  Activity: Non-toxic
Helicobacter pylori [6]
  Activity: 0%
Helicobacter pylori [7]
  Activity: 0.02%
Helicobacter pylori [8]
  Activity: 87.8%
Helicobacter pylori [9]
  Activity: Dose-dependent-effect
  MIC: 8 µg/mL (≈ 25 µM)
[10]
  Activity: Non-toxic
GES1 [11]
  Activity: Active
Helicobacter pylori [12]
  Activity: 0.31%
Helicobacter pylori [13]
  Activity: Active
Helicobacter pylori [14]
  Activity: Active
GES1 [15]
  Activity: Active
Helicobacter pylori [16]
  Activity: 0.8%
Helicobacter pylori [17]
  Activity: 94.61%
Helicobacter pylori [18]
  Activity: inactive
Helicobacter pylori [19]
  Activity: 0.43%
Helicobacter pylori [20]
  Activity: 7.61%
[21]
  Activity: Non-toxic
Helicobacter pylori [22]
  Activity: 96.82%
Helicobacter pylori [23]
  Activity: 2.53%
Helicobacter pylori [24]
  Activity: 7.64%
Helicobacter pylori [25]
  Activity: 0.02%
Helicobacter pylori [26]
  Activity: 4.38%
Helicobacter pylori [27]
  Activity: 2.91%
[28]
  Activity: Non-toxic
Helicobacter pylori [29]
  Activity: 100%
